Reference: the CheMixHub viscosity set

Assay: xn = mol fraction of the nth substance listed

ClC(Cl)(Cl)Cl + Nc1ccccc1
298.15 K, 101.32 kPa
Settings | viscosity [mPa·s]
x2 = 0.1018 | 0.991
x2 = 0.2047 | 1.111
x2 = 0.325 | 1.297
x2 = 0.3901 | 1.418
x2 = 0.4954 | 1.655
x2 = 0.5976 | 1.914
x2 = 0.7051 | 2.263
x2 = 0.8076 | 2.672
x2 = 0.9265 | 3.3

ClC(Cl)(Cl)Cl + CCC(C)=O
Settings | viscosity [mPa·s]
298 K, 101.3 kPa, x1 = 0.1477 | 0.485
298 K, 101.3 kPa, x1 = 0.2858 | 0.543
298 K, 101.3 kPa, x1 = 0.4787 | 0.648
298 K, 101.3 kPa, x1 = 0.629 | 0.697
298 K, 101.3 kPa, x1 = 0.8296 | 0.792
298.15 K, 101.33 kPa, x2 = 0.1954 | 0.736
298.15 K, 101.33 kPa, x2 = 0.397 | 0.623
298.15 K, 101.33 kPa, x2 = 0.405 | 0.62
298.15 K, 101.33 kPa, x2 = 0.499 | 0.576
298.15 K, 101.33 kPa, x2 = 0.509 | 0.576
298.15 K, 101.33 kPa, x2 = 0.745 | 0.483
298.15 K, 101.33 kPa, x2 = 0.752 | 0.472
318 K, 101.3 kPa, x1 = 0.1385 | 0.3877
318 K, 101.3 kPa, x1 = 0.2858 | 0.4379
318 K, 101.3 kPa, x1 = 0.4821 | 0.5052
318 K, 101.3 kPa, x1 = 0.6311 | 0.5625
318 K, 101.3 kPa, x1 = 0.8418 | 0.6572

CCN(CC)CC + CCCCCC
viscosity [mPa·s], 101.33 kPa
Settings | x1 = 0.1076 | x1 = 0.2064 | x1 = 0.4089 | x1 = 0.5106 | x1 = 0.6081 | x1 = 0.804 | x1 = 0.9018
303.15 K | 0.2744 | 0.276 | 0.2838 | 0.2911 | 0.3002 | 0.3248 | 0.3408
313.15 K | 0.2432 | 0.2489 | 0.2626 | 0.271 | 0.2799 | 0.3004 | 0.3125

COc1cccc(C)c1 + CCCCCOC(C)=O
Settings | viscosity [mPa·s]
298.15 K, 101 kPa, x1 = 0.5 | 0.8784

ClC(Cl)(Cl)Cl + CCCCCC
298.15 K, 101 kPa
Settings | viscosity [mPa·s]
x1 = 0.1 | 0.3171
x1 = 0.1729 | 0.3422
x1 = 0.2 | 0.3432
x1 = 0.3 | 0.3743
x1 = 0.3869 | 0.4102
x1 = 0.4 | 0.4105
x1 = 0.5 | 0.4532
x1 = 0.5869 | 0.5067
x1 = 0.6 | 0.5052
x1 = 0.7 | 0.5705
x1 = 0.7906 | 0.6461
x1 = 0.8 | 0.6544
x1 = 0.9 | 0.7635

ClC(Cl)(Cl)Cl + CCCCCO
viscosity [mPa·s], 101 kPa
Settings | x2 = 0.0207 | x2 = 0.0826 | x2 = 0.3114 | x2 = 0.4575 | x2 = 0.5771 | x2 = 0.8017
298.15 K | 0.912 | 0.971 | 1.306 | 1.62 | 1.884 | 2.761
308.15 K | 0.798 | 0.84 | 1.03 | 1.241 | 1.488 | 2.103
318.15 K | 0.708 | 0.741 | 0.886 | 1.037 | 1.199 | 1.647

CCCOC(C)=O + CCCCCCCCCC
298.15 K, 101.33 kPa
Settings | viscosity [mPa·s]
x2 = 0.0879 | 0.565
x2 = 0.1221 | 0.571
x2 = 0.1602 | 0.578
x2 = 0.2376 | 0.591
x2 = 0.3166 | 0.606
x2 = 0.3821 | 0.62
x2 = 0.4847 | 0.644
x2 = 0.6012 | 0.678
x2 = 0.715 | 0.718
x2 = 0.8476 | 0.776
x2 = 0.9258 | 0.817

ClC(Cl)(Cl)Cl + CCCCCCO
viscosity [mPa·s], 101 kPa
Settings | 298.15 K | 308.15 K | 318.15 K
x2 = 0.0092 | 0.909 | 0.786 | 0.691
x2 = 0.0374 | 0.941 | 0.817 | 0.71
x2 = 0.07 | 0.961 | – | –
x2 = 0.0912 | 1 | 0.865 | 0.745
x2 = 0.14 | 1.058 | – | –
x2 = 0.1545 | 1.11 | 0.938 | 0.806
x2 = 0.2095 | 1.197 | 1.008 | 0.861
x2 = 0.21 | 1.167 | – | –
x2 = 0.27 | 1.299 | – | –
x2 = 0.293 | 1.368 | 1.127 | 0.942
x2 = 0.3554 | 1.533 | 1.255 | 1.046
x2 = 0.496 | 1.965 | 1.564 | 1.273
x2 = 0.5 | 1.931 | – | –
x2 = 0.6 | 2.317 | – | –
x2 = 0.6252 | 2.531 | 1.957 | 1.548
x2 = 0.69 | 2.737 | – | –
x2 = 0.7459 | 3.091 | 2.344 | 1.814
x2 = 0.86 | 3.57 | – | –
x2 = 0.8652 | 3.83 | 2.863 | 2.202

NCC(=O)N[C@@H](CCC(N)=O)C(=O)O + O
298.15 K, 101 kPa
Settings | viscosity [mPa·s]
x1 = 0.001798 | 0.937
x1 = 0.002695 | 0.96

CCCC(C)=O + CN(C)c1ccccc1
viscosity [mPa·s], 101 kPa
Settings | 303.15 K | 308.15 K
x2 = 0.0756 | 0.574 | 0.525
x2 = 0.1362 | 0.669 | 0.611
x2 = 0.2003 | 0.76 | 0.7
x2 = 0.2795 | 0.875 | 0.803
x2 = 0.3412 | 0.941 | 0.873
x2 = 0.4101 | 1.012 | 0.94
x2 = 0.4921 | 1.072 | 1.001
x2 = 0.5741 | 1.112 | 1.041
x2 = 0.6512 | 1.134 | 1.063
x2 = 0.7214 | 1.143 | 1.071
x2 = 0.7914 | 1.148 | 1.074
x2 = 0.8512 | 1.15 | 1.076
x2 = 0.9214 | 1.159 | 1.085

ClC(Cl)(Cl)Cl + CCCCCCCO
viscosity [mPa·s], 101 kPa
Settings | 298.15 K | 308.15 K | 318.15 K
x2 = 0.0559 | 0.969 | 0.832 | 0.725
x2 = 0.07 | 0.982 | – | –
x2 = 0.13 | 1.102 | – | –
x2 = 0.147 | 1.151 | 1.004 | 0.867
x2 = 0.19 | 1.237 | – | –
x2 = 0.25 | 1.402 | – | –
x2 = 0.2529 | 1.453 | 1.227 | 1.052
x2 = 0.3189 | – | 1.321 | 1.096
x2 = 0.3828 | 1.836 | 1.489 | 1.231
x2 = 0.47 | 2.175 | – | –
x2 = 0.57 | 2.716 | – | –
x2 = 0.6371 | 3.08 | 2.329 | 1.851
x2 = 0.67 | 3.302 | – | –
x2 = 0.7713 | 3.949 | 2.943 | 2.256
x2 = 0.816 | 4.238 | 3.167 | 2.422
x2 = 0.84 | 4.527 | – | –

CCCCCCCCCCCCc1ccccc1S(=O)(=O)[O-].[Na+] + O
viscosity [mPa·s], 101 kPa
Settings | x1 = 5e-06 | x1 = 1e-05 | x1 = 2e-05 | x1 = 2.2e-05 | x1 = 2.7e-05 | x1 = 3.2e-05 | x1 = 3.8e-05 | x1 = 4.3e-05 | x1 = 4.9e-05 | x1 = 5.4e-05
293.15 K | 0.9811 | 0.9821 | 0.9837 | 0.9859 | 0.9881 | 0.9903 | 0.9919 | 0.9944 | 0.9974 | 1.001
298.15 K | 0.8497 | 0.8508 | 0.8522 | 0.8544 | 0.8558 | 0.857 | 0.8582 | 0.86 | 0.8614 | 0.864
303.15 K | 0.7683 | 0.7687 | 0.77 | 0.7718 | 0.7744 | 0.7763 | 0.7812 | 0.7864 | 0.796 | 0.7988
308.15 K | 0.6924 | 0.6932 | 0.6943 | 0.6958 | 0.6979 | 0.7013 | 0.7051 | 0.7074 | 0.7106 | 0.7123
313.15 K | 0.6075 | 0.609 | 0.6102 | 0.6121 | 0.6138 | 0.6167 | 0.6203 | 0.623 | 0.6242 | 0.6262
